# In ChEMBL document CHEMBL5143514, “Investigation of chalcogen bioisosteric replacement in a series of heterocyclic inhibitors of tryptophan 2,3-dioxygenase” (Eur J Med Chem, 2022):
# Activity calls are given as the source filed them. The rule behind the calls is not given here.
# Assays:
# [1] = target: T1, Tryptophan 2,3-dioxygenase (Homo sapiens, UniProt P48775); assay: Inhibition of human TDO2 expressed in Escherichia coli BL21-DE3 rosetta cells at pH 6.5 potassium phosphate buffer using L-tryptophan as substrate measured after 15 mins
# T1 sequence (P48775 whole entry): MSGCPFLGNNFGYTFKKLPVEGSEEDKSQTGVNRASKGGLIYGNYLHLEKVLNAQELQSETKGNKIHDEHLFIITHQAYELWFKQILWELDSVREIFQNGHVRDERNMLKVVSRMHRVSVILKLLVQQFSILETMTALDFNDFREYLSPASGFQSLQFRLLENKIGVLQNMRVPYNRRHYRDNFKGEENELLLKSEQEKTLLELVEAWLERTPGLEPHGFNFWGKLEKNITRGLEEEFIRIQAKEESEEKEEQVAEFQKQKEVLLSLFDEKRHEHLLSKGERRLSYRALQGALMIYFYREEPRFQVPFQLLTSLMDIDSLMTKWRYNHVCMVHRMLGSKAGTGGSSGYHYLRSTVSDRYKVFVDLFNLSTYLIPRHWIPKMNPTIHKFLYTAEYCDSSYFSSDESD
# [2] = target: T1, Tryptophan 2,3-dioxygenase; assay: Inhibition of human TDO2 expressed in mouse P815B cells using L-tryptophan as substrate incubated for 7 hrs by UPLC analysis; format: cell-based
# [3] = target: T2, Indoleamine 2,3-dioxygenase 1 (Homo sapiens, UniProt P14902); assay: Inhibition of human IDO1 in potassium phosphate buffer at pH 6.5 using L-tryptophan as substrate incubated for 8 mins
# T2 sequence (P14902 whole entry): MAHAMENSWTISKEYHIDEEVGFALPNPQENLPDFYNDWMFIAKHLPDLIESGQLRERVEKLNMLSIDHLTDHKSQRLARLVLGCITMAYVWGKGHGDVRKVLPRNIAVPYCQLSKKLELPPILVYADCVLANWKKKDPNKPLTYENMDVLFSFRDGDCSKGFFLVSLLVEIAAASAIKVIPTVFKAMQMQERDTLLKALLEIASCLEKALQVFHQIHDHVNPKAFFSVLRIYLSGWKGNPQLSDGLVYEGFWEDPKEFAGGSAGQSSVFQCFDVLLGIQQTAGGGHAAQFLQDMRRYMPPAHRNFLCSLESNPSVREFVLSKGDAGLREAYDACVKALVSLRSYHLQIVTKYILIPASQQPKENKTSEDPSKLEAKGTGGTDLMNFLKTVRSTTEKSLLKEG
# [4] = target: T2, Indoleamine 2,3-dioxygenase 1; assay: Inhibition of human IDO1 expressed in mouse P815B cells using L-tryptophan as substrate incubated for 24 hrs by UPLC analysis; format: cell-based
# [5] = Lipophilicity, logKw of compound in methanol and water buffer at pH 2.3 by HPLC-UV analysis; format: physicochemical
# [6] = Metabolic stability in liver microsomes assessed as half life at 10 uM measured upto 24 hrs in the presence of NADPH by UPLC analysis; format: ADME, Microsome
# [7] = Cytotoxicity against mouse P815B cells assessed as reduction in cell viability measured after 6 hrs by MTS assay; format: functional; details: read-out: LD50 (the source's name)
# [8] = Cytotoxicity against mouse P815B cells assessed as reduction in cell viability measured after 24 hrs by MTS assay; format: functional; details: read-out: LD50 (the source's name)
# A 172 [9] = assay: Cytotoxicity against human A 172 cells assessed as reduction in cell viability measured after 6 hrs by MTS assay; format: functional; details: read-out: LD50 (the source's name)
# A 172 [10] = assay: Cytotoxicity against human A 172 cells assessed as reduction in cell viability measured after 24 hrs by MTS assay; format: functional; details: read-out: LD50 (the source's name)
# [11] = Cytotoxicity against HEK293 cells assessed as reduction in cell viability measured after 6 hrs by MTS assay; format: toxicity, cell-based; details: human, read-out: LD50
# [12] = Cytotoxicity against HEK293 cells assessed as reduction in cell viability measured after 24 hrs by MTS assay; format: toxicity, cell-based; details: human, read-out: LD50
# P815B [13] = assay: Cytotoxicity against mouse P815B cells assessed as reduction in cell viability at 30 uM measured after 24 hrs by MTS assay; format: functional, cell-based
# P815B [14] = assay: Induction of ROS generation in mouse P815B cells assessed as increase in H2O2 concentration at high concentration measured upto 6 hrs by bioluminescent ROS-Glo H2O2 assay; format: functional, cell-based
# [15] = Induction of apoptosis in mouse P815B cells assessed as viable cells at 5 uM measured after 24 hrs by Annexin V-FITC/PI staining based flow cytometry method relative to control; format: functional; details: read-out: Activity
# [16] = Induction of apoptosis in mouse P815B cells assessed as viable cells at 1 uM measured after 24 hrs by Annexin V-FITC/PI staining based flow cytometry method relative to control; format: functional; details: read-out: Activity
# [17] = Induction of apoptosis in mouse P815B cells assessed as early apoptotic cells at 1 uM measured after 24 hrs by Annexin V-FITC/PI staining based flow cytometry method relative to control; format: functional
# [18] = Induction of apoptosis in mouse P815B cells assessed as late apoptotic cells at 1 uM measured after 24 hrs by Annexin V-FITC/PI staining based flow cytometry method relative to control; format: functional
# [19] = Induction of apoptosis in mouse P815B cells assessed as necrotic cells at 1 uM measured after 24 hrs by Annexin V-FITC/PI staining based flow cytometry method relative to control; format: functional
# [20] = Induction of apoptosis in mouse P815B cells assessed as early apoptotic cells at 5 uM measured after 24 hrs by Annexin V-FITC/PI staining based flow cytometry method relative to control; format: functional
# [21] = Induction of apoptosis in mouse P815B cells assessed as late apoptotic cells at 5 uM measured after 24 hrs by Annexin V-FITC/PI staining based flow cytometry method relative to control; format: functional
# [22] = Induction of apoptosis in mouse P815B cells assessed as necrotic cells at 5 uM measured after 24 hrs by Annexin V-FITC/PI staining based flow cytometry method relative to control; format: functional
# [23] = Induction of apoptosis in mouse P815B cells assessed as viable cells at 10 uM measured after 24 hrs by Annexin V-FITC/PI staining based flow cytometry method relative to control; format: functional; details: read-out: Activity
# [24] = Induction of apoptosis in mouse P815B cells assessed as early apoptotic cells at 10 uM measured after 24 hrs by Annexin V-FITC/PI staining based flow cytometry method relative to control; format: functional
# [25] = Induction of apoptosis in mouse P815B cells assessed as late apoptotic cells at 10 uM measured after 24 hrs by Annexin V-FITC/PI staining based flow cytometry method relative to control; format: functional
# [26] = Induction of apoptosis in mouse P815B cells assessed as necrotic cells at 10 uM measured after 24 hrs by Annexin V-FITC/PI staining based flow cytometry method relative to control; format: functional
# [27] = Induction of apoptosis in mouse P815B cells assessed as apoptotic cells at 10 uM measured after 6 hrs by Annexin V-FITC/PI staining based flow cytometry method relative to control; format: functional
# [28] = Induction of apoptosis in mouse P815B cells assessed as necrotic cells at 10 uM measured after 6 hrs by Annexin V-FITC/PI staining based flow cytometry method relative to control; format: functional
# [29] = Induction of cell cycle arrest in mouse P815B cells assessed as accumulation of cells at G1 phase at 5 uM measured after 24 hrs by PI staining based flow cytometry method (reference value: 42.8%); format: functional
# [30] = Induction of cell cycle arrest in mouse P815B cells assessed as accumulation of cells at S phase at 5 uM measured after 24 hrs by PI staining based flow cytometry method (reference value: 45.0%); format: functional
# [31] = Induction of cell cycle arrest in mouse P815B cells assessed as accumulation of cells at G2 phase at 5 uM measured after 24 hrs by PI staining based flow cytometry method (reference value: 14.6%); format: functional
Structure (SMILES),IC50 [1] [µM],IC50 [2] [µM],IC50 [3] [µM],IC50 [4] [µM],logKw [5],half-life at 10 µM [6] [min],CC50 [7] [µM],CC50 [8] [µM],CC50 (A 172 [9]) [µM],CC50 (A 172 [10]) [µM],CC50 at 6 h [11] [µM],CC50 at 24 h [12] [µM],Activity (P815B [13]),Activity (P815B [14]),also measured
c1ccc2c(-c3ccc4nsnc4c3)c[nH]c2c1,3,0.129,> 100,> 100,4,35.6,30,10,30,30,> 80,> 80,–,–,–
c1ccc2c(-c3cnc4nsnc4c3)c[nH]c2c1,4.7,0.082,> 100,> 100,3.3,22,> 80,30,> 80,> 80,> 80,> 80,Toxic,–,–
c1ccc2c(-c3cnc4n[se]nc4c3)c[nH]c2c1,4.5,0.171,> 100,> 100,2.9,28.3,> 80,30,> 80,> 80,> 80,> 80,Toxic,Active,–
c1ccc2c(-c3ccc4n[se]nc4c3)c[nH]c2c1,2.5,0.094,> 100,> 100,3.5,70.2,30,3,30,30,30,10,–,Active,viability at 5 µM [15]: 79.2%; viability at 1 µM [16]: 81%; Activity [17]: 1.15%; Activity [18]: 16.6%; Activity [19]: 1.24%; Activity [20]: 5.19%; Activity [21]: 14.2%; Activity [22]: 1.46%; viability at 10 µM [23]: 52.7%; Activity [24]: 2.64%; Activity [25]: 44.1%; Activity [26]: 0.55%; Activity [27]: 30.4%; Activity [28]: 27.6%; Activity [29]: 47.3%; Activity [30]: 41.3%; Activity [31]: 11.6%
c1ccc2c(-c3ccc4nonc4c3)c[nH]c2c1,3.4,0.051,> 100,> 100,4.1,24.6,10,10,30,30,> 80,> 80,–,–,–
